Data reported in patent US20150299250A1, “MACROCYCLIC COMPOUNDS AND USES THEREOF” (ADELAIDE RESEARCH & INNOVATION PTY LTD, priority 2012, published 2015).

How the values were obtained:
[1] = target: T1, ovine calpain 1 (o-CAPN1) (Ovis aries, UniProt B2ZA85); experiment: Fluorometric calpain assay (BODIPY-Fl casein), ovine calpain 1; type: biochemical
T1 sequence (B2ZA85 1-716): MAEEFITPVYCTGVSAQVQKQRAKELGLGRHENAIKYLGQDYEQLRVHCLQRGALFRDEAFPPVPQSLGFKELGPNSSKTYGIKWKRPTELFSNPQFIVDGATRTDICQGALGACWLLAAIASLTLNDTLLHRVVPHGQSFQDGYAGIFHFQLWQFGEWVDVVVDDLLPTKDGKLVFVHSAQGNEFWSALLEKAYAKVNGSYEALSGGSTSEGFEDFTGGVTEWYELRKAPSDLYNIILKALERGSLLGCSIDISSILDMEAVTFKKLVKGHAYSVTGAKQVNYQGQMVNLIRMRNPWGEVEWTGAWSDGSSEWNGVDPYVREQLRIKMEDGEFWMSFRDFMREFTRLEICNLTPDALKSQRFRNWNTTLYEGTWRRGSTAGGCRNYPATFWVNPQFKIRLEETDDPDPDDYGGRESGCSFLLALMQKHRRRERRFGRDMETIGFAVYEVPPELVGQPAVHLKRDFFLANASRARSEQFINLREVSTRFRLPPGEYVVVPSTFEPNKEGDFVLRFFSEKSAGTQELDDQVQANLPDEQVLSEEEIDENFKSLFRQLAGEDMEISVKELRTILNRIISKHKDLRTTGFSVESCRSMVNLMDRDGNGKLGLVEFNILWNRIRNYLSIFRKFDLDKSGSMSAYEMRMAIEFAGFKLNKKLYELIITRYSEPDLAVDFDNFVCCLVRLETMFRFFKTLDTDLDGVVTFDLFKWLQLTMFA
T1 sequence (A0ACI6PYI8 1-265 partner): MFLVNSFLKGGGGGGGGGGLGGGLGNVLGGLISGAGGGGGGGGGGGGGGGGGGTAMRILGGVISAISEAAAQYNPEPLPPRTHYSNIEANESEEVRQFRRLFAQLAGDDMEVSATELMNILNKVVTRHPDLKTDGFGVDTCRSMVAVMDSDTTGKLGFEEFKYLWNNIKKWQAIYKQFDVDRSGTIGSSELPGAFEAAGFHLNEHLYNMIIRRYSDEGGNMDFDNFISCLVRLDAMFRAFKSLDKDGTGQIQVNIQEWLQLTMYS
Method: Fluorometric assays (excitation: 485 nm, emission: 520 nm) with ovine calpains 1 and 2 were done with a (BMG Labtech) Fluostar Optima plate reader at 37.0±0.2° C. in 96-well black (Greiner Bio-one) microassay plates. Calpains 1 and 2, partially purified from sheep lung by hydrophobic interaction and ion-exchange chromatography, were diluted in 20 mM MOPS, pH 7.5, containing 2 mM EGTA, 2 mM EDTA and 0.035% v/v 2-mercaptoethanol to give a linear response over the course of the assay. The substrate BODIPY-F1 casein was prepared as reported. {1} A 0.0005% solution of the substrate in 10 mM MOPS, pH 7.5, 10 mM CaCl2, 0.1 mM NaN3, 0.1% v/v 2-mercaptoethanol was prepared freshly before each experiment. […]
Inhibition studies were performed in the presence of seven different inhibitor concentrations and 1% v/v DMSO in a volume of 200 μL: 50 μl of inhibitor solution was added to a microassay well followed by 50 μl of calpain-containing solution. The reaction was initiated by adding 100 μl of BODIPY-F1 casein solution to each well and progress curves were monitored every 30 s over 570 s. Uninhibited enzyme activity was determined by adding 4% v/v DMSO in water instead of inhibitor solution. […]
The average value of rates obtained in two separate experiments, each in triplicate, was plotted versus the inhibitor concentration and IC50 values were calculated with the following equation: […]

[2] = target: T2, 20S proteasome chymotrypsin-like (CT-L) activity (Oryctolagus cuniculus, UniProt G1T4Q9); experiment: In vitro proteasome activity assay, CT-L (Suc-LLVY-AMC); type: biochemical, rabbit; conditions: purified 20S proteasome
T2 sequence (G1T4Q9 1-263): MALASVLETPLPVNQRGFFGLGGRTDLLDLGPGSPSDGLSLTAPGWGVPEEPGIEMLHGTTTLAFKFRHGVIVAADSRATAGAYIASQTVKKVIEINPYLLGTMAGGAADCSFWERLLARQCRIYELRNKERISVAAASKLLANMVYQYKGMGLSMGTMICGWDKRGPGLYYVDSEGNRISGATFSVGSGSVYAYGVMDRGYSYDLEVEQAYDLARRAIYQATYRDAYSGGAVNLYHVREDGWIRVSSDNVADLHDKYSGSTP
Method: (§1) The assays were performed in vitro using purified 20S proteasome/inhibitor mixtures, with the activity of each subunit of the proteasome assessed upon incubation with its respective target peptide.
(§2) Purified rabbit 20S proteasome and fluorogenic CT-L substrate (Suc-LLVY-AMC) were purchased from Boston Biochem (Cambridge, Mass., USA). The T-L and CP-L fluorogenic substrates (Ac-RLR-AMC and Z-nLPnLD-AMC) were purchased from Enzo Life Sciences (Farmingdale, N.Y., USA). The 20S proteasome was diluted to 0.2 μg/μL in 20S proteasome buffer (50 mM HEPES pH 7.6, 150 mM NaCl and 1 mM DDT) and stored at −80° C. Purified 20S proteasome (8 ng) was pre-incubated with the indicated concentrations of inhibitors for 15 minutes and subsequently added to the AMC-labeled substrate peptide (50 μM) in assay buffer (25 mM HEPES, pH 7.5, 0.5 mM EDTA, 0.05% NP-40, and 0.001% SDS (w/v)) at 37° C. for 2 hours.

[3] = target: T3, 20S proteasome T-L activity (Oryctolagus cuniculus, UniProt G1SWK8); experiment: In vitro proteasome activity assay, T-L (Ac-RLR-AMC); type: biochemical, rabbit; conditions: purified 20S proteasome; highest concentration tested 25,000 nM
T3 construct: purchased Boston Biochem
T3 sequence (G1SWK8 1-271): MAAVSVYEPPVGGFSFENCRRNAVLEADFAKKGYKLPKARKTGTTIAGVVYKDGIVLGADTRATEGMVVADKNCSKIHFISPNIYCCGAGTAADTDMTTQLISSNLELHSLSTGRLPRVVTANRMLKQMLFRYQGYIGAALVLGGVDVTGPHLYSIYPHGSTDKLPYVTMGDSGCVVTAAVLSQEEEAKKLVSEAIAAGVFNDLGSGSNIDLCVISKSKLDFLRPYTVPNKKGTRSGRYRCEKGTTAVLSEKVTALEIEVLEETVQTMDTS
Method: as §1, §2

[4] = target: T4, 20S proteasome CP-L activity (Oryctolagus cuniculus, UniProt A0A5F9DQW2); experiment: In vitro proteasome activity assay, CP-L (Z-nLPnLD-AMC); type: biochemical, rabbit; conditions: purified 20S proteasome; highest concentration tested 25,000 nM
T4 construct: Purified rabbit 20S proteasome
Method: We initially determined the ability of the novel tripeptide MG132 analogues 1-6 and the macrocycles 3a and 4a to inhibit the three separate protease activities of the 20S proteasome (CT-L, -T-L and CP-L). The assays were performed in vitro using purified 20S proteasome/inhibitor mixtures, with the activity of each subunit of the proteasome assessed upon incubation with its respective target peptide. […] In addition, there is no apparent clear-cut preference for the length of tether (compare compounds 1 to 4), while the introduction of an aryl group at P3 (as in 6) is well tolerated.
as §2, with “hours. Fluorescent substrate cleavage by the 20S proteasome was linear during this incubation timeframe (Supplementary Figure S4. Hydrolysed 7-amino-4-methylcoumarin (AMC) was subsequently detected with the FLUOstar OPTIMA microplatefluorometer at excitation/emission of 390/460 nm. The activity was estimated in relative fluorescence units and half of the maximal inhibitory activity of the proteasome is represented by IC50 values. A minimum of three biological replicates were performed for each data point.” for “hours.”

[5] = tested on: WE-68 Ewing's sarcoma cells; experiment: Cell viability assay (7AAD, 48 hours), WE-68; type: cell-based; conditions: 48 hours exposure; read-out: Cancer cell lines IC50 (μM) WE-68
Method: (§3) Cell viability assays were performed as previously described. Briefly, cells were seeded in 96 well microtiterplates at a density of 3×10^4 cells per well in the presence of the indicated chemical. Cells were harvested 48 hours post-treatment, centrifuged at 1,300×g, washed in phosphate-buffered saline (PBS) and stained with 7AAD solution (2 μg/mL) (7-amino-actinomycin-D, Invitrogen, Carlsbad, Calif.) for 10 mins at room temperature. Viable cells were determined with the use of a FACS Calibur flow cytometer (Becton Dickinson Immunocytometry Systems), and analyzed with the use of FLOWJO (Tree Star, Inc) and GraphPad Prism (GraphPad Software Inc).
(§4) WE-68 and VH-64 Ewing's sarcoma cells were kindly supplied by F. van Valen (Department of Orthopaedic Surgery, Westfalische-Wilhelms-University, Germany).TC-252 and STA-ET-1 Ewing's sarcoma cells were kindly provided by G. Hamilton (Department of Surgery, University of Vienna, Austria) or P. Ambros (Children's Cancer Research Institute, St Anna Children's Hospital, Vienna, Austria). Primary human embryonic fibroblasts or primary human osteoblasts were collected from the Women's and Children's Hospital (North Adelaide, South Australia, Australia) or Royal Adelaide Hospital with patient consent. Mouse Embryonic Fibroblasts (MEFs) and its p53-null derivative were kindly supplied by Guillermina Lozano (Department of Genetics, Anderson Cancer Centre, University of Texas, Houston, Tex., USA). WE-68 cell lines were grown in RPMI-1640 media, whilst human embryonic fibroblasts and MEFs were grown in Dulbecco's Modified Eagle's Medium (DMEM). Media was supplemented with 10% FCS, 1% PSG and 10 mM HEPES. All cells were maintained at 37° C. in a humidified atmosphere of 5% CO2.

[6] = tested on: VH-64 Ewing's sarcoma cells; experiment: Cell viability assay (7AAD, 48 hours), VH-64; type: cell-based; conditions: 48 hours exposure; read-out: Cancer cell lines IC50 (μM) VH-64
Method: as §3, §4

[7] = tested on: STA-ET-1 Ewing's sarcoma cells; experiment: Cell viability assay (7AAD, 48 hours), STA-ET-1; type: cell-based; conditions: 48 hours exposure; read-out: Cancer cell lines IC50 (μM) STA-ET-1
Method: as §3, §4

[8] = tested on: TC-252 Ewing's sarcoma cells; experiment: Cell viability assay (7AAD, 48 hours), TC-252; type: cell-based; conditions: 48 hours exposure; read-out: Cancer cell lines IC50 (μM) TC-252
Method: as §3, §4

[9] = tested on: primary human embryonic fibroblasts; experiment: Cell viability assay (7AAD, 48 hours), normal fibroblasts; type: cell-based; conditions: Fibroblast, 48 hours exposure, read-out: Normal cell lines IC50 (μM) Fibroblasts
Method: as §3, §4

[10] = tested on: primary human osteoblasts; experiment: Cell viability assay (7AAD, 48 hours), normal osteoblasts; type: cell-based; conditions: Osteoblast, 48 hours exposure, read-out: Normal cell lines IC50 (μM) Osteoblasts
Method: as §3, §4

[11] = tested on: panel of sarcoma cell lines (WE-68, VH-64, STA-ET-1, TC-252); experiment: Cell viability assay, panel of four sarcoma cell lines (average); type: cell-based
Method: as §3, §4

[12] = tested on: normal cell lines (fibroblasts, osteoblasts); experiment: Cell viability assay, normal cell lines (average); type: cell-based; conditions: Homo sapiens; average of fibroblasts and osteoblasts
Method: as §3, §4

T4 sequence (A0A5F9DQW2 1-212): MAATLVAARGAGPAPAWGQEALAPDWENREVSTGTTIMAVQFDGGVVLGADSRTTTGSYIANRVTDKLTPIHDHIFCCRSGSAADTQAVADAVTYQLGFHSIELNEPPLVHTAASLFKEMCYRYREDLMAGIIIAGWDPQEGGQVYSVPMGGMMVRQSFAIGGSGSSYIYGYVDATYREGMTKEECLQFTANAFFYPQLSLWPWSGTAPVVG

CC(C)CC(C=O)NC(=O)C1CCCCOc2ccc(cc2)CCC(=O)c2ccc([nH]2)C(=O)N1 (stereo not drawn) [Compound 2c]
isoform selectivity o-CAPN2 vs. o-CAPN1 [1]: no isoform selectivity

C#CCOc1ccc(C[C@@H](C=O)NC(=O)[C@H](CC(C)C)NC(=O)[C@H](CN=[N+]=[N-])NC(=O)OCc2ccccc2)cc1 [Compound 1]
IC50 [2]: 34 nM
IC50 [3]: > 25000 nM
IC50 [4]: > 25000 nM
IC50 [5]: 4.5 µM
IC50 [6]: 5.8 µM
IC50 [7]: 6.5 µM
IC50 [8]: 5 µM
IC50 [9]: 12.2 µM
IC50 [10]: 23.7 µM
IC50 ([11]; average of four sarcoma cell lines, read-out: Average IC50 for cancer cell lines): 5.4 µM
Therapeutic window ([11]; fold change in potency (IC50) against cancer cell line versus normal cell line): ×3.3
IC50 [12]: 18 µM
melting point: 71 to 73 °C

CC(C)C[C@@H](C=O)NC(=O)[C@@H]1CCCCCCCCCCCC(=O)c2ccc([nH]2)C(=O)N1 [Compound 1c, (S)—N—((S)-4-methyl-1-oxopentan-2-yl)-2,16-dioxo-3,20-diazabicyclo[15.2.1]icosa-1(19),17-diene-4-carboxamide]
isoform selectivity o-CAPN2 vs. o-CAPN1 [1]: no isoform selectivity
